Structures can show the parent of a compound that is named as a salt.
What was measured:
[1] = tested on: human PBMC; assay: Mitogenic activity assay, [3H]dThd incorporation in human PBMC with or without PHA; type: cell-based; conditions: concentrations up to 200 μg/ml, absence of PHA
Description: The mitogenic activity assay was conducted as follows. Human PBMC were isolated from buffy coats and brought in RPMI-1640 cell culture medium supplemented with 10% FCS and 2 mM L-glutamine. The cell cultures were exposed to several concentrations of the test compounds for 3 days in the absence or presence of PHA (phytohemagglutinin) (Murex Biotech Ltd., Dartford, UK) at 2 μg/ml. Subsequently, 0.25 μCi [CH3^−3H]dThd was added and, after 20 hr incubation at 37° C., the cells were precipitated in the presence of 10% TCA and the precipitate was washed twice with 10% TCA, twice with 5% TCA and once with 70% ethanol. The precipitate, containing [^3H]DNA, was then examined for radioactivity in a liquid scintillation counter.

[2] = in vitro; conditions: human
[3] = Conversion of G-NH2 to Metabolite X in 10% pig serum with and without reducing agents; type: in vitro ADME; conditions: absence of GTT, NAC and DTT
Description: In another set of experiments, the conversion of GNH2 to modified glycinamide (Metabolite X) in pig serum (10%) was monitored over time in the presence and absence of differing concentrations (e.g., 40 mM, 10 mM, 4 mM) of reducing agents (glutathione (GTT), N-acetyl cysteine (NAC), and dithiothreitol (DTT)). […] See Han et al., Bull. Korean. Chem. Soc., 17, 659-661 (1996). In the absence of GTT, NAC and DTT, almost 100% coversion to Metabolite X was seen.

[4] = Conversion of radiolabeled G-NH2 to modified G-NH2 by human sera; type: in vitro ADME; conditions: 10% human serum in PBS, 37° C., 24 hours, each of 10 samples
Description: Several lots of human sera and fetal bovine sera were analyzed for their ability to convert G-NH2 to modified G-NH2. Radiolabeled cation exchange HPLC purified G-NH2 (see EXAMPLE 3) was incubated with the various sera at a 10% final concentration in PBS at 37° C. for 15 minutes and 1, 6, 24, or 72 hours. Subsequently, the amount of radiolabeled modified G-NH2 was evaluated using the cation exchange HPLC approach described above.

[5] = tested on: CEM cells
[6] = Conversion of [14C]G-NH2 to Metabolite X by sera of different animals; type: in vitro ADME
Description: Next, an evaluation of sera obtained from other animals was analyzed for their ability to convert G-NH2 to modified G-NH2. Serum obtained from pigs (PS), mice (MS), dogs (CS), cats (FS), horse (ES), and monkey (SS) was incubated with HPLC purified G-NH2 and at 15 minutes, 1 hour, 6 hours, and/or 24 hours an aliquot of the mixture was removed and analyzed by cation exchange HPLC, as described above. Approximately a 10% dilution of serum in PBS was used.
Approximately, 0.1 μCi [^14C]G-NH2 ([…]) is added to a reaction mixture containing 10% serum in phosphate-buffered saline (PBS) (pH 7.5) (total volume: 100 μl). The reaction was carried out for different time periods. Sera, used in the study were from human, murine (mouse and rat), avian (chicken), rabbit, simian, feline, canine, porcine, equine or bovine (cow) origin. At the completion of the time period for each reaction, approximately 200 μl cold methanol was added to stop the reaction and the samples were placed on ice for 10 minutes. Subsequently, the samples were subjected to centrifugation (5 min, 15000 rpm). The supernatants were then injected on a Cation Exchange Column (Whatman) (Partisphere-SCX) and G-NH2 and Metabolite X were separated on a gradient of ammonium phosphate buffer 5 mM pH 3.5 (Buffer A) and ammonium phosphate buffer 0.300 M pH 3.5 (Buffer B) [10 min A+6 min to 83% B+17% H2O) (C)+2 min C-+6 min to A)]. […]

Row | Compound | mitogenic activity against human PBMCs [1] | CC50 at 96 hr [2] [µM] | conversion to Metabolite X [3] [%] | conversion of G-NH2 to modified G-NH2 [4] | CC50 [5] [mM] | EC50 [5] [mM] | no cytotoxicity at concentrations as high as [5] [µM] | conversion to modified glycinamide ([6]; human, mouse, rat, and avian sera) | conversion to Metabolite X ([6]; rabbit, simian, feline, canine, porcine, equine and bovine sera)
1 | NC(=O)C(N)O (stereo not drawn) [AlphaHGA, α-Hydroxy-glycinamide hydrochloride] | non-mitogenic | 606 ± 23 |  |  |  |  |  |  | 
2 | NCC(N)=O [G-NH2, glycinamide] |  |  | ~100 | less than 10% | > 2 | > 2 | 1500 to 2000 | did not effectively catalyze | readily converted to Metabolite X

From patent US20080076824A1, “Compounds That Inhibit Replication Of Human Immunodeficiency Virus” (priority 2004, published 2008)
